Measurements: publication PMC4023971, “Targeting Prolyl Endopeptidase with Valproic Acid as a Potential Modulator of Neutrophilic Inflammation” (PLoS ONE, 2014)

Molecular target: T1, prolyl endopeptidase (PE, rhPE) (Homo sapiens, UniProt P48147)
T1 construct: gene PREP; recombinant human PE expressed in E. coli from plasmid pTrcHis PE
T1 sequence (P48147 1-710): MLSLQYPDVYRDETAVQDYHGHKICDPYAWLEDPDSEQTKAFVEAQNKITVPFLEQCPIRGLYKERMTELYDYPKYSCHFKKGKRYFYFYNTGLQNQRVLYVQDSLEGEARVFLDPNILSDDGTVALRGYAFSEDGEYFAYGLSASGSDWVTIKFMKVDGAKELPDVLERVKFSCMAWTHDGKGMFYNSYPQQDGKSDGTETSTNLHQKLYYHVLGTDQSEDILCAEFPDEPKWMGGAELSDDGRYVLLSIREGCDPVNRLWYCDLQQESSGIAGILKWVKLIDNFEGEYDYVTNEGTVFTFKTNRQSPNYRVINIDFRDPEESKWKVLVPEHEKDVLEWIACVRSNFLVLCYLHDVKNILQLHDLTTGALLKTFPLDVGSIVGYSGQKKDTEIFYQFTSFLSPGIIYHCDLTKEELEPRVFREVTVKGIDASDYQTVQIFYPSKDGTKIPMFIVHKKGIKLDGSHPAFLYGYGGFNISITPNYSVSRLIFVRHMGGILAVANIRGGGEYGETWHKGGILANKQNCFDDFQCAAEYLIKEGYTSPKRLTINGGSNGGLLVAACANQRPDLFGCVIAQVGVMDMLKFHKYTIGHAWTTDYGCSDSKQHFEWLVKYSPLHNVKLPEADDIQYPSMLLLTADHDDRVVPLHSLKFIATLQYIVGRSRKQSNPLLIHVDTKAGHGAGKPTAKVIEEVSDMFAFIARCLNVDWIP
Test: purified rhPE activity assay (Suc-Gly-Pro-AMC fluorescence / Suc-Gly-Pro-pNA UV-vis, Lineweaver-Burk); supported by CD and NMR competition with ZPP
Format: biochemical

CCCC(CCC)C(=O)O [VPA, Valproic acid]
Ki: 1000 to 2000 µM
